Assay results from US7683044B2, “Sphingomyelin therapy of autoimmune disease” (Center for Molecular Medicine and Immunology, priority 1999, dated 2010).
Read-outs that look alike come from different tables or passages of the source.

How the values were obtained:
[1] = test system: progressive rheumatoid arthritis; assay type: in vivo, human
From the text: A person, with severe progressive rheumatoid arthritis of the finger joints, wrists, and elbows, has failed therapy with methotrexate, and obtains only minor relief when placed on Enbrel therapy.

[2] = test system: B-cells isolated from individuals with autoimmune disease; assay: MTT cell viability, sphingomyelin enhancement of chemotherapy on B-cells (Example 5); assay type: cell-based, human
Experimental: (§1) Sphingomyelin enhancement of chemotherapy is evaluated by measuring its effect on 5-fluorouracil or doxorubicin (DOX) treatment of B-cells isolated from individuals with autoimmune disease and grown in culture. Cell viability is measured using the dye MTT (3-(4,5-dimethylthiazol-2-yl)-2,5-diphenyl tetrazolium bromide) in a 24-well chamber format. See Mosmann, T., J. Immunol. Methods, 65:55-63 (1983). B-cells are maintained in RPMI media supplemented with 10% fetal calf serum. Human umbilical cord venous endothelial cells (HUVEC) from pooled donors (Clonetics/BioWhittaker, San Diego, Calif.) are used as controls. Cells (10^4/well) are plated in the presence of varying concentrations of drug and sphingomyelin and grown in a humidified incubator. As an additional control, egg yolk phosphatidylcholine (PC) (Sigma, St. Louis, Mo.) is added to the cells instead of sphingomyelin. Drugs and lipids are added to HUVEC cells 24 hours after plating, but otherwise are treated the same. After four days, the media is replaced with media containing 0.5 mg/ml MTT and incubated two to four hours at 37° C. An equal volume of 0.04 N HCl in isopropanol is added, and the absorbance at 570 nm is measured. The IC50 values, defined as the concentration of drug necessary to reduce cell viability by 50%, from three to seven independent experiments are averaged and compared using ANOVA.

[3] = test system: Primary Sjogren's Syndrome (pSS); assay: Therapy of primary Sjogren's syndrome with rituximab combined with sphingomyelin (Example 4); assay type: in vivo, human
Experimental: They then receive a course of rituximab (Rituxan, Genentech) at 600 mg infused over 6 hours every other week for 3 doses, combined with weekly infusions of sphingomyelin at doses of 400 mg for 6 weeks. During this therapy, only 15 mg prednisolone is continued as a maintenance therapy. After the first rituximab infusion, their circulating B-cells are measured to be depleted by 90%, which continues for about 8 months. Their main subjective symptoms of dry mouth and eyes show improvement, as well as their parotid gland reduction is noted, and also an improvement in their dry cough and purpura. An improvement of the objective parameters of dry eyes and dry mouth is also observed, and this improvement is maintained for at least 3 months after this therapy course. The combination of sphingomyelin with apoptosis-inducing agent is shown to be synergistic for treatment of pSS.

[4] = test system: Human umbilical cord venous endothelial cells (HUVEC); assay: MTT cell viability, control HUVEC cells (Example 5); assay type: cell-based
Experimental: as §1

rheumatoid arthritis [5] = assay: Therapy of rheumatoid arthritis with adalimumab combined with sphingomyelin (Example 3); assay type: in vivo, human
Experimental: A person with 3 healthy children presents with a history of rheumatoid arthritis (RA) for 9 years, and a prior therapy history of methotrexate, leflunomide, prednisolone, sometimes in combination. They continue on their methotrexate (10 mg) and prednisolone (10 mg) daily doses, and is now given the TNF antagonist, adalimumab (Humira, Abbott Laboratories) subcutaneously at 40 mg every other week, combined with weekly infusions of sphingomyelin at a dose of 400 mg. This therapy is continued for 12 weeks, and they are evaluated for response every 4 weeks after completion of their course of therapy by ACR 20%, 50% and 70% scoring, and EULAR responses.

rheumatoid arthritis [6] = assay: Therapy of rheumatoid arthritis with sphingomyelin, patient one (Example 1); assay type: in vivo, human
Experimental: Various forms of sphingomyelin can be obtained in powder form from Sigma Chemicals (St. Louis, Mo.). Mix 1 g of sphingomyelin powder with 9.5 ml of sterile saline or phosphate buffered saline (PBS) and QS to 10 ml. Sonicate the resulting suspension in a water bath at 80-90° C. for 1 hour. The suspension should be administered within one hour of sonication and should be approximately room temperature (25-30° C.). The suspension can be stored at 4° C.; however, it should be re-sonicated for 30 minutes in a water bath at 80-90° C. before administration. […] They have a history of rheumatoid arthritis (RA) that presented about 5 years ago, and has undergone numerous treatments with corticosteroids, cyclophosphamide, and methotrexate, with responses of reduced durations and then relapses. They now present to their rheumatologist with active RA as judged by the presence of 5 tender and 4 swollen joints (out of 44 examined), morning stiffness for more than 45 minutes, an elevated erythrocyte sedimentation rate (ESR) of 40 mm/h (Westergren method), and an elevated C-reactive protein (CRP) blood level of 80 mg/L, as well as increased levels of rheumatoid factor (RF) of IgM, IgG, and IgA isotypes. All other laboratory tests, except circulating red blood cells (mild anemia), are within the normal range. They have been taking a nonsteroidal anti-inflammatory drug (NSAID; ibuprofen), 20 mg/day of prednisolone, and doses of cyclophosphamide i.v. (750 mg). The patient is allowed to continue on these medications, and is also given i.v. infusions of sphingomyelin (prepared as described above) in phosphate-buffered sterile saline and QS twice weekly at doses of 400 mg, continuing for 3 weeks. […] The patient is considered to have improved upon adding sphingomyelin i.v. therapy to their prior medications, to which they relapsed. Subsequently, they have their prednisolone maintenance therapy tapered to 5 mg daily with 200 mg sphingomyelin given 3 times weekly for 8 weeks, and is able to function as before without any deterioration of their condition, with increase in their physical activities and general reduction in joint pain and swelling.

myasthenia gravis = assay: Treatment of a patient with myasthenia gravis, epratuzumab plus sphingomyelin (Example 8); assay type: in vivo, human
Experimental: A person has failed all conventional therapy for myasthenia gravis, and is admitted to a neurological intensive therapy unit. The patient is stabilized by plasma exchange, and is given intravenous immunoglobulin to reduce the titer of anti-acetylcholine receptor antibody. The patient remains bedridden, and is then treated with epratuzumab, 600 mg intravenously each week, plus 400 mg/wk of sphingomyelin, for a period of six weeks. […] Two months after the last treatment the patient is mobile, and is released from the hospital.

[7] = test system: Systemic Lupus Erythematosus (SLE); assay: Therapy of systemic lupus erythematosus with sphingomyelin, epratuzumab and prednisolone (Example 2); assay type: in vivo, human
From the text: patient two is a person with two healthy children, and with a history of SLE for at least 8 years. They have received prior cyclophosphamide, azathioprine, and corticosteroid treatments, with recurrent activity flares resulting in increasing disability. They have had evidence of myelosuppression, with lymphopenia, resulting in tapering of their medications. Prior to receiving the current experimental therapy, they are confirmed to have a diagnosis of SLE according to the American College of Rheumatology revised criteria, and moderately active disease (a score of 10 for total British Isles Lupus Assessment Group (BILAG) disease activity) at study entry. Their current medication of prednisolone, 15 mg/day, is continued, and they receive epratuzumab (anti-CD22 humanized monoclonal antibody) i.v. at 360 mg/m^2 once weekly every other week for a total of 4 infusions. Prior to each infusion, they are medicated with acetaminophen (Tylenol) and antihistamine (Benadryl). They are also given an infusion of 300 mg sphingomyelin twice weekly for 8 weeks. Two and 6 weeks after completion of this therapy, they are evaluated, and it is decided that their prednisolone doses of 15 mg/day can be tapered to 10 mg/day, because of initial evidence of improvement of their BILAG scores in 3 of the 8 body systems. Four weeks later, the SLE panel of tests (autoantibodies, C3, C-reactive protein, erythrocyte sedimentation rate), and physical examination indicate progressive improvement, with less fatigue, lethargy, malaise, anorexia, reduction of malar erythemia, and reduction of arthritis. They are considered to have about a 40% improvement of their condition as a result of the investigational therapy.

[8] = test system: chronic idiopathic thrombocytopenia purpura; assay: Treatment of a patient with chronic idiopathic thrombocytopenia purpura (Example 6); assay type: in vivo, human
Experimental: A person with chronic idiopathic thrombocytopenia purpura has been treated with gamma globulins and high-dose dexamethasone, but the disease progresses. They undergo splenectomy, which fails to stabilize the disease. Their platelet count falls to less than 20,000/microliter, and hemorrhagic events increase in frequency. The patient is then treated with epratuzumab, 480 mg intravenously each week, plus 400 mg/wk of sphingomyelin, for a period of six weeks. Four weeks after the last dose of epratuzumab and sphingomyelin, platelet number is increased by 300%, and the hemorrhagic events disappear.

[9] = B-cells, MTT after four days, from IC50 values of drug

Substance: veltuzumab: anti-CD20 humanized Mab
- human anti-veltuzumab antibodies ([1]; human, in vivo): No human anti-veltuzumab antibodies are observed

Substance: phosphatidylcholine [PC, reference compound]
- enhancement of chemosensitivity (5FU, DOX) ([2]; lipid control added to the cells instead of sphingomyelin): does not elicit a similar effect

Substance: rituximab: Rituximab (Rituxan, anti-CD20) antibody [reference compound]
- depletion of circulating B-cells ([3]; after the first rituximab infusion (600 mg), combined with weekly sphingomyelin 400 mg): 90%
- duration of circulating B-cell depletion ([3]; rituximab 600 mg every other week x3 + sphingomyelin 400 mg weekly for 6 weeks): about 8 months

Substance: sphingomyelin
- increase of 5FU sensitivity [2, 9]: 140%
- increase of DOX sensitivity [2, 9]: 340%
- duration of improvement after therapy course ([3]; rituximab + sphingomyelin): at least 3 months
- objective parameters of dry eyes and dry mouth ([3]; rituximab + sphingomyelin 400 mg weekly for 6 weeks, prednisolone 15 mg maintenance): improvement
- combination effect with apoptosis-inducing agent ([3]; sphingomyelin with rituximab): synergistic
- sensitization to 5FU or DOX therapy [4]: does not sensitize
- overall response (rheumatoid arthritis [5]; 6-month evaluation, anti-TNF therapy combined with sphingomyelin): good response
- ACR response (rheumatoid arthritis [5]; end of 12-week course, sphingomyelin 400 mg weekly + adalimumab 40 mg s.c. every other week + methotrexate, prednisolone): ACR50 improvement
- EULAR response (rheumatoid arthritis [5]; end of 12-week course, sphingomyelin + adalimumab + methotrexate, prednisolone): moderate EURAR response
- tolerability of therapy (rheumatoid arthritis [5]; sphingomyelin 400 mg weekly + adalimumab, 12 weeks): tolerated well
- ESR, CRP and RF factor levels above the normal range (rheumatoid arthritis [6]; 4 and 6 months after onset, therapy of prednisolone, NSAID and sphingomyelin repeated at 3 months): about 20%
- reduction of joint stiffness and swelling compared to baseline (rheumatoid arthritis [6]; 4 and 6 months after onset, therapy repeated at 3 months): about 50%
- improvement in the ACR20 score (rheumatoid arthritis [6]; 4 and 6 weeks after sphingomyelin 400 mg i.v. twice weekly for 3 weeks, added to ibuprofen, prednisolone, cyclophosphamide): 20%
- improvement in the elevated CRP, RF and ESR levels (rheumatoid arthritis [6]; 4 and 6 weeks after sphingomyelin 400 mg i.v. twice weekly for 3 weeks, added to prior medications): about 50%
- joint stiffness in the morning (rheumatoid arthritis [6]; 4 and 6 weeks later, baseline more than 45 minutes): less than 15 minutes
- combination effect with standard anti-rheumatoid therapeutic agents (rheumatoid arthritis [6]; compared with either sphingomyelin or standard agents alone): more than additive effect
- drop in B-lymphocytes (myasthenia gravis; one week after last treatment, epratuzumab 600 mg i.v. weekly + sphingomyelin 400 mg/wk for six weeks): 50%
- titer of the anti-acetylcholine (receptor antibody) (myasthenia gravis; one week after last treatment, epratuzumab + sphingomyelin): significant drop
- clinical status (myasthenia gravis; two months after the last treatment): mobile
- improvement of BILAG scores, number of body systems ([7]; 2 and 6 weeks after sphingomyelin 300 mg twice weekly for 8 weeks + epratuzumab 360 mg/m^2 x4 + prednisolone 15 mg/day): 3 of the 8 body systems
- improvement of condition ([7]; four weeks later, sphingomyelin + epratuzumab + prednisolone): ~40%
- combination effect with prednisolone and epratuzumab ([7]; more effective than either agent alone): synergistic effect
- hemorrhagic events ([8]; four weeks after last dose of epratuzumab and sphingomyelin): disappear
- increase of platelet number ([8]; four weeks after last dose, epratuzumab 480 mg i.v. weekly + sphingomyelin 400 mg/wk for six weeks): 300%
- disease status ([8]; three months after the last treatment): full remission
- improvement in measures of disease activity ([1]; 6 months after the second therapy with veltuzumab and sphingomyelin): 70%
- improvement in measures of disease activity ([1]; after 3 weeks, veltuzumab 80 mg i.v. weekly + sphingomyelin 400 mg/wk for eight weeks): 30%
- duration for which the improvement is maintained ([1]; after first course of veltuzumab + sphingomyelin): 6 months
- normal B-cells in the blood ([1]; veltuzumab + sphingomyelin): significantly reduced
